Experimental data reported in ChEMBL document CHEMBL3885861, “Open TG-GATES”.

Organism: Rattus norvegicus
Assay: Open TG-GATES - Regimen: Single
Type: toxicity, organism-based, Sprague-Dawley
Design: regimen Single, gender Male, age 6 weeks
Settings: in vivo, po, 0 mg/kg, route gavage, dose level Control; for APTT / Bas / Eos / Fbg / Hb / Lym / MCH / MCHC / MCV / Mono / Neu / PT / RBC / Ret / WBC: tissue Blood; for KIDNEY_L / KIDNEY_R / KIDNEY_TOTAL: tissue Kidney; for ALT / AST / CRE / DBIL / IP / K / LDH / Na / RALB / TBIL / TC / TG / TP / gamma-GTP / ALP: tissue Plasma

## Cc1cnc(NC(=O)C2=C(O)c3ccccc3S(=O)(=O)N2C)s1 [MELOXICAM]
3 h
  TERMINAL_BW: 226.2 g
  APTT: 17.9 s
  Bas: 0.4%
  Eos: 1%
  Fbg: 222.8 mg/dL
  Hb: 13.4 g/dL
  Lym: 78.6%
  MCH: 21.2 pg
  MCHC: 34.1%
  MCV: 62.3 fL
  Mono: 2%
  Neu: 17.6%
  PT: 11.8 s
  RBC: 633.2 x10_4/ul
  Ret: 7%
  WBC: 78.8 x10_2/uL
  KIDNEY_L: 1 g
  KIDNEY_R: 1 g
  KIDNEY_TOTAL: 2 g
  ALT: 37.6 IU/L
  AST: 68 IU/L
  CRE: 0.4 mg/dL
  DBIL: 0.06 mg/dL
  IP: 9.3 mg/dL
  K: 3.7 meq/L
  LDH: 149.4 IU/L
  Na: 141.4 meq/L
  RALB: 3.4 g/dL
  TBIL: 0.1 mg/dL
  TC: 79.6 mg/dL
  TG: 61.6 mg/dL
  TP: 5.4 g/dL
  gamma-GTP: 1 IU/L
6 h
  TERMINAL_BW: 224.5 g
  Bas: 0.6%
  Eos: 0.6%
  Fbg: 235.8 mg/dL
  Lym: 75.2%
  MCH: 21.8 pg
  MCHC: 33.8%
  MCV: 64.4 fL
  Mono: 3.2%
  Neu: 19.8%
  PT: 12.6 s
  RBC: 625.4 x10_4/ul
  Ret: 7.3%
  WBC: 110.7 x10_2/uL
  KIDNEY_L: 1 g
  KIDNEY_R: 1 g
  KIDNEY_TOTAL: 2 g
  ALP: 739.4 IU/L
  ALT: 31.4 IU/L
  AST: 61.6 IU/L
  CRE: 0.3 mg/dL
  DBIL: 0.066 mg/dL
  IP: 9.5 mg/dL
  K: 3.9 meq/L
  LDH: 153 IU/L
  Na: 141.4 meq/L
  RALB: 3.3 g/dL
  TBIL: 0.1 mg/dL
  TC: 74.8 mg/dL
  TG: 55.2 mg/dL
  TP: 5.4 g/dL
  gamma-GTP: 0.8 IU/L
9 h
  TERMINAL_BW: 222.3 g
  APTT: 17.6 s
  Bas: 0.2%
  Eos: 1%
  Fbg: 233.2 mg/dL
  Hb: 13.5 g/dL
  Lym: 72.4%
  MCH: 22.1 pg
  MCHC: 34.1%
  MCV: 64.8 fL
  Mono: 3%
  Neu: 22.4%
  PT: 12.6 s
  RBC: 610.8 x10_4/ul
  Ret: 7.2%
  WBC: 88.3 x10_2/uL
  KIDNEY_L: 1 g
  KIDNEY_R: 1 g
  KIDNEY_TOTAL: 2.1 g
  ALP: 910.8 IU/L
  ALT: 29.6 IU/L
  AST: 62.6 IU/L
  CRE: 0.4 mg/dL
  DBIL: 0.068 mg/dL
  IP: 9.5 mg/dL
  K: 4 meq/L
  LDH: 153.2 IU/L
  Na: 141.6 meq/L
  RALB: 3.4 g/dL
  TBIL: 0.1 mg/dL
  TC: 70.6 mg/dL
  TG: 78.8 mg/dL
  TP: 5.5 g/dL
  gamma-GTP: 1.2 IU/L
24 h
  TERMINAL_BW: 238.2 g
  Bas: 0.6%
  Eos: 1.2%
  Fbg: 224.8 mg/dL
  Lym: 78.6%
  MCH: 21.1 pg
  MCHC: 33.9%
  MCV: 62.4 fL
  Mono: 2.6%
  Neu: 16.4%
  PT: 11.7 s
  RBC: 646.8 x10_4/ul
  Ret: 6.4%
  KIDNEY_L: 1 g
  KIDNEY_R: 1 g
  KIDNEY_TOTAL: 2 g
  ALP: 981.2 IU/L
  ALT: 32.6 IU/L
  AST: 62.6 IU/L
  CRE: 0.4 mg/dL
  DBIL: 0.098 mg/dL
  IP: 7.5 mg/dL
  K: 3.9 meq/L
  LDH: 161 IU/L
  Na: 142.4 meq/L
  RALB: 3.4 g/dL
  TBIL: 0.2 mg/dL
  TC: 74.2 mg/dL
  TG: 125.4 mg/dL
  TP: 5.5 g/dL
